Legend:
TYK2 = TYK2 (Homo sapiens (Human), UniProt P29597); experiment: Tyk2 activity inhibition assay (radioactive kinase / Caliper assay); format: biochemical
Experimental: (§1) Peptide substrate, [KKSRGDYMTMQIG], (20 μM) is prepared in reaction buffer (20 mM Hepes pH 7.5, 10 mM MgCl2, 1 mM EGTA, 0.02% Brij35, 0.02 mg/mL BSA, 0.1 mM […], 2 mM DTT, 1% DMSO. TYK2 (Invitrogen) kinase is added, followed by compounds in DMSO. 33PATP is added to initiate the reaction in ATP at 10 μM. Kinase reaction is incubated for 120 min at room temp and reactions are spotted onto P81 ion exchange paper (Whatman #3698-915), and then washed extensively in 0.75% phosphoric acid, prior to reading the radioactivity counts. For JAK2 (Invitrogen) kinase assay the peptide substrate poly[Glu:Tyr] (4:1), 0.2 mg/ml is used, in the reaction carried out the same as for TYK2.
(§2) The caliper machine employs an off chip mobility shift assay to detect phosphorylated peptide substrates from kinase assays, using microfluidics technology. The assays are carried out at ATP concentration equivalent to the ATP Km, and at 1 mM ATP. Compounds are serially diluted in DMSO then further diluted in assay buffer (25 mM HEPES, pH 7.5, 0.01% Brij-35, 0.01% Triton, 0.5 mM EGTA). 5 ul of diluted compound was added into wells first, then 10 ul of enzyme mix was added into wells, followed by 10 uL of substrate mix (peptide and ATP in 10 mM MgCl2) to start reaction. Reaction was incubated at 28° C. for 25 min and then added 25 ul stop buffer (100 mM HEPES, 0.015% Brij-35, 50 mM EDTA), followed by reading with Caliper. JAK2 at 1 nM final concentration and TYK2 at 9.75 nM are from Carna, and substrates used are ATP at 20 and 16 uM, respectively. JAK2 assay uses peptide 22 and TYK2 uses peptide 30 (Caliper), each at 3 uM.
(§3) The compound numbers correspond to the compound numbers in Table 1. Compounds having an activity designated as “A” provided an Ki≤0.01 μM; compounds having an activity designated as “B” provided an Ki of 0.01-0.1 μM; compounds having an activity designated as “C” provided an Ki of 0.1-1.0 μM; and compounds having an activity designated as “D” provided an Ki≥1.0 μM.

JAK2 = JAK2 (Homo sapiens (Human), UniProt O60674); experiment: JAK2 activity inhibition assay (radioactive kinase / Caliper assay); format: biochemical
Chain of JAK2 (O60674 whole entry): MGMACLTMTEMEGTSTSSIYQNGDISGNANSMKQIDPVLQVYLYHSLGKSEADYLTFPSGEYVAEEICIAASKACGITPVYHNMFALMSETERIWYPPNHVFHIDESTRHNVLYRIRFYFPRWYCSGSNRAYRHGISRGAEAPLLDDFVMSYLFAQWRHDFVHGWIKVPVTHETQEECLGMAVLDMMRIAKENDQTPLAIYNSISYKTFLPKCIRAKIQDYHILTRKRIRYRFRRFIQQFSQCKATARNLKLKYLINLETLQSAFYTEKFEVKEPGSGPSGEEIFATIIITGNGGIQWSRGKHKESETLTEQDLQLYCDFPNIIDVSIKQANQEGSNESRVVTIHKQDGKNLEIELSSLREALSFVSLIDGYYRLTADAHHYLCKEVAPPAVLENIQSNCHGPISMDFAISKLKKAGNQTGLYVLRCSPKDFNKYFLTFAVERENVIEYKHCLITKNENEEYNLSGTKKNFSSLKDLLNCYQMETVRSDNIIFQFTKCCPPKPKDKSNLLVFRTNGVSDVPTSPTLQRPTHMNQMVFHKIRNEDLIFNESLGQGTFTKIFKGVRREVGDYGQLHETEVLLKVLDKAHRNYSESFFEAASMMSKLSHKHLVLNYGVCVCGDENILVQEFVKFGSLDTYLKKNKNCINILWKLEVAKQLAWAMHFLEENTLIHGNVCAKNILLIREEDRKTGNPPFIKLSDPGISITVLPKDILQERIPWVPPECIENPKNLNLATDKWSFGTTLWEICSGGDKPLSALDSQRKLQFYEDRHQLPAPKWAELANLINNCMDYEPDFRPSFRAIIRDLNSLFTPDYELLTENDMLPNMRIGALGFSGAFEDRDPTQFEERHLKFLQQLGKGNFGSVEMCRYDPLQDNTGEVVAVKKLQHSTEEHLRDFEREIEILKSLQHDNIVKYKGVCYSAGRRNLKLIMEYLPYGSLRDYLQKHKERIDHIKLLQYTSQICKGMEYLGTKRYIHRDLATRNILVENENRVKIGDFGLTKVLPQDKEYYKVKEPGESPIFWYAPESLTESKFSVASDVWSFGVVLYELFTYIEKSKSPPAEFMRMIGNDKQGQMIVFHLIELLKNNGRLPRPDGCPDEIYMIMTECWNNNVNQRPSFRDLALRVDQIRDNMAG
Experimental: as §1, §2, §3

Chain of TYK2 (P29597 whole entry): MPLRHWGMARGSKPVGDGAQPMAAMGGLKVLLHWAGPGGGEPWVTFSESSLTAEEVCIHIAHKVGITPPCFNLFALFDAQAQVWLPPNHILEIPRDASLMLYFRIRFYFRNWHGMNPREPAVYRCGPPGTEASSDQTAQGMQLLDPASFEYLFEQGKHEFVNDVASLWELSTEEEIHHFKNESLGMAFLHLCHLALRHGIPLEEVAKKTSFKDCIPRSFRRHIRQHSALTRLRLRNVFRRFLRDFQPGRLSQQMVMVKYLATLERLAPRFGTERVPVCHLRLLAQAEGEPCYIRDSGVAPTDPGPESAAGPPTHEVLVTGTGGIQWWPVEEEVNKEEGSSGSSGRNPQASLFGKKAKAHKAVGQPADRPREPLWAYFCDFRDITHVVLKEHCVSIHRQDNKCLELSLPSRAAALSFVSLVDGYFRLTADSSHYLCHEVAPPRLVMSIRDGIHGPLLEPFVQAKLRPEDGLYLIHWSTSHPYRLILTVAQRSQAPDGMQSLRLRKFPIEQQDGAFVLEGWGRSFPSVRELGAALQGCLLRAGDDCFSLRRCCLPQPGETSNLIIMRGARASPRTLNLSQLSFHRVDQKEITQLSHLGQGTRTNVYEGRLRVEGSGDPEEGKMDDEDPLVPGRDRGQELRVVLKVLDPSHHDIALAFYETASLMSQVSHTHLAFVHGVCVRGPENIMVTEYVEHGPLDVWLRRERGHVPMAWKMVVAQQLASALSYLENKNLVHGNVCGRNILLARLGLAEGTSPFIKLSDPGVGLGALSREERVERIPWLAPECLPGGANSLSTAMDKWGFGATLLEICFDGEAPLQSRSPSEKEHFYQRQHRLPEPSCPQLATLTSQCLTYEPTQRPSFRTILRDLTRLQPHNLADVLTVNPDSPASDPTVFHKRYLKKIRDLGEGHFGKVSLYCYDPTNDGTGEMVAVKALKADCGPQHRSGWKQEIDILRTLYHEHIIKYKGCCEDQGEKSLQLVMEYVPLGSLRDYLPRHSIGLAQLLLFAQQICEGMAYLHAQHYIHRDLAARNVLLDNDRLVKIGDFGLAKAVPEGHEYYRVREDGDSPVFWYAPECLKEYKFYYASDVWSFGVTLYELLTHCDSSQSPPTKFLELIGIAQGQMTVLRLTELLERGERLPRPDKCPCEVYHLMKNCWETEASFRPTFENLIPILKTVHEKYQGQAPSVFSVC

Q: With `N#Cc1cccc(F)c1-c1cc(Nc2ccc(N3C[C@H]4COC[C@H]4C3)cn2)c2c(n1)CNC2=O` [Compound I-76, 3-fluoro-2-(5-oxo-4-((5-((3aR,6aS)-tetrahydro-1H-furo[3,4-c]pyrrol-5(3H)-yl)pyridin-2-yl)amino)-6,7-dihydro-5H-pyrrolo[3,4-b]pyridin-2-yl)benzonitrile] as the compound, how does the Ki (TYK2) read?
A: ≤ 10 nM

Q: What about the Ki (JAK2) of the same compound?
A: 10 to 100 nM

Q: How did the Ki (JAK2) turn out when `CCNC(=O)[C@@](O)(CC(F)(F)F)c1ccc(Nc2nc(-c3c(F)cccc3F)nc3c2C(=O)NC3)cc1` [Compound I-28, (R)-2-(4-((2-(2,6-difluorophenyl)-5-oxo-6,7-dihydro-5H-pyrrolo[3,4-d]pyrimidin-4-yl)amino)phenyl)-N-ethyl-4,4,4-trifluoro-2-hydroxybutanamide] was run?
A: 100 to 1000 nM

Q: `CCNC(=O)C(O)(CC(F)(F)F)c1ccc(Nc2nc(-c3c(F)cccc3F)nc3c2C(=O)NC3)cc1` (stereo not shown) [Compound I-26, 2-(4-((2-(2,6-difluorophenyl)-5-oxo-6,7-dihydro-5H-pyrrolo[3,4-d]pyrimidin-4-yl)amino)phenyl)-N-ethyl-4,4,4-trifluoro-2-hydroxybutanamide] was tested. Which Ki (TYK2) did it give?
A: ≤ 10 nM

Q: What about the Ki (JAK2) of the same compound?
A: 100 to 1000 nM

Q: How did the Ki (JAK2) turn out when `O=C1NCc2nc(-c3c(F)cccc3F)nc(Nc3ccc([C@H](O)C(F)(F)F)cc3)c21` [Compound I-30, (S)-2-(2,6-difluorophenyl)-4-((4-(2,2,2-trifluoro-1-hydroxyethyl)phenyl)amino)-6,7-dihydro-5H-pyrrolo[3,4-d]pyrimidin-5-one] was run?
A: 100 to 1000 nM

Q: How did the Ki (TYK2) turn out when `O=C1NCc2nc(-c3c(F)cccc3F)cc(Nc3ccc4c(c3)COB4O)c21` [Compound I-61, 2-(2,6-difluorophenyl)-4-((1-hydroxy-1,3-dihydro-benzo-[c][1,2]oxaborol-5-yl)amino)-6,7-dihydro-5H-pyrrolo[3,4-b]pyridin-5-one] was run?
A: 10 to 100 nM

Q: What about the Ki (JAK2) of the same compound?
A: ≥ 1000 nM

Q: Which results are given for `O=C1NCc2nc(-c3c(F)cccc3F)cc(Nc3ccc(N4CCC5(CC4)COC5)cn3)c21` [Compound I-24, 4-((5-(2-oxa-7-azaspiro[3.5]nonan-7-yl)pyridin-2-yl)amino)-2-(2,6-difluorophenyl)-6,7-dihydro-5H-pyrrolo[3,4-b]pyridin-5-one]?
A: Ki (TYK2): ≤ 10 nM; Ki (JAK2): ≤ 10 nM

Q: How did the Ki (JAK2) turn out when `C[C@](O)(c1ccc(Nc2cc(-c3c(F)cccc3F)nc3c2C(=O)NC3)cc1)C(F)(F)F` [Compound I-43, (S)-2-(2,6-difluorophenyl)-4-((4-(1,1,1-trifluoro-2-hydroxypropan-2-yl)phenyl)amino)-6,7-dihydro-5H-pyrrolo[3,4-b]pyridin-5-one] was run?
A: 10 to 100 nM

Q: For `CN1C(=O)[C@](C)(c2ccc(Nc3nc(-c4c(F)cccc4F)nc4c3C(=O)NC4)cc2)Oc2ccccc21` [Compound I-40, (S)-2-(4-((2-(2,6-difluorophenyl)-5-oxo-6,7-dihydro-5H-pyrrolo[3,4-d]pyrimidin-4-yl)amino)phenyl)-2,4-dimethyl-2H-benzo[b][1,4]oxazin-3(4H)-one], which Ki (TYK2) is on record?
A: 100 to 1000 nM

Q: Which results are given for `CN1C(=O)[C@@](C)(c2ccc(Nc3nc(-c4c(F)cccc4F)nc4c3C(=O)NC4)cc2)Oc2ccccc21` [Compound I-41, (R)-2-(4-((2-(2,6-difluorophenyl)-5-oxo-6,7-dihydro-5H-pyrrolo[3,4-d]pyrimidin-4-yl)amino)phenyl)-2,4-dimethyl-2H-benzo[b][1,4]oxazin-3(4H)-one]?
A: Ki (TYK2): 100 to 1000 nM; Ki (JAK2): 100 to 1000 nM

Q: Which results are given for `CC(O)(C(=O)O)c1ccc(Nc2nc(-c3c(F)cccc3F)nc3c2C(=O)NC3)cc1` (stereo not shown) [Compound I-6, 2-(4-((2-(2,6-difluorophenyl)-5-oxo-6,7-dihydro-5H-pyrrolo-[3,4-d]pyrimidin-4-yl)amino)phenyl)-2-hydroxypropanoic acid]?
A: Ki (TYK2): ≤ 10 nM; Ki (JAK2): 100 to 1000 nM

Q: For `O=C1NCc2nc(-c3c(F)cccc3F)cc(Nc3ccc(C(=O)N4CCOC5(CC5)C4)cc3)c21` [Compound I-50, 4-((4-(4-oxa-7-azaspiro[2.5]octane-7-carbonyl)phenyl)amino)-2-(2,6-difluorophenyl)-6,7-dihydro-5H-pyrrolo[3,4-b]pyridin-5-one], which Ki (TYK2) is on record?
A: ≤ 10 nM

Q: What about the Ki (JAK2) of the same compound?
A: 10 to 100 nM

Q: How did the Ki (TYK2) turn out when `O=C1NCc2nc(-c3c(F)cccc3F)cc(Nc3ccc(C(=O)N4CCC5(CC4)CC5)cc3)c21` [Compound I-57, 4-((4-(6-azaspiro[2.5]octane-6-carbonyl)phenyl)amino)-2-(2,6-difluorophenyl)-6,7-dihydro-5H-pyrrolo[3,4-b]pyridin-5-one] was run?
A: ≤ 10 nM

Q: What about the Ki (JAK2) of the same compound?
A: 10 to 100 nM

Q: With `O=C1NCc2nc(-c3c(F)cccc3F)nc(Nc3ccc(C(=O)N4CC5CCC(C4)O5)cc3)c21` [Compound I-5, 4-((4-(8-oxa-3-azabicyclo[3.2.1]octane-3-carbonyl)phenyl)-amino)-2-(2,6-difluorophenyl)-6,7-dihydro-5H-pyrrolo[3,4-d]pyrimidin-5-one] as the compound, how does the Ki (TYK2) read?
A: ≤ 10 nM

Q: What about the Ki (JAK2) of the same compound?
A: 100 to 1000 nM

Q: What does the source list for `O=C1NCc2nc(-c3c(F)cccc3F)cc(Nc3ccc4cc[nH]c4n3)c21` [Compound I-21, 4-((1H-pyrrolo[2,3-b]pyridin-6-yl)amino)-2-(2,6-difluoro-phenyl)-6,7-dihydro-5H-pyrrolo[3,4-b]pyridin-5-one]?
A: Ki (TYK2): ≤ 10 nM; Ki (JAK2): 10 to 100 nM

Q: What does the source list for `CN1C(=O)C(C)(c2ccc(Nc3nc(-c4c(F)cccc4F)nc4c3C(=O)NC4)cc2)Oc2ccccc21` (stereo not shown) [Compound I-39, 2-(4-((2-(2,6-difluorophenyl)-5-oxo-6,7-dihydro-5H-pyrrolo[3,4-d]pyrimidin-4-yl)amino)phenyl)-2,4-dimethyl-2H-benzo[b][1,4]oxazin-3(4H)-one]?
A: Ki (TYK2): ≤ 10 nM; Ki (JAK2): 100 to 1000 nM

Q: What does the source list for `O=C1NCc2nc(-c3c(F)cccc3F)cc(Nc3ccc4c(c3)OC3(CC3)C4=O)c21` [Compound I-77, 2-(2,6-difluorophenyl)-4-((3-oxo-3H-spiro[benzofuran-2,1′-cyclopropan]-6-yl)amino)-6,7-dihydro-5H-pyrrolo[3,4-b]pyridin-5-one]?
A: Ki (TYK2): ≤ 10 nM; Ki (JAK2): 10 to 100 nM

Q: Which results are given for `CC1(C)COc2cc(Nc3cc(-c4c(F)cccc4C#N)nc4c3C(=O)NC4)ccc21` [Compound I-80, 2-(4-((3,3-dimethyl-2,3-dihydrobenzofuran-6-yl)amino)-5-oxo-6,7-dihydro-5H-pyrrolo[3,4-b]pyridin-2-yl)-3-fluorobenzonitrile]?
A: Ki (TYK2): ≤ 10 nM; Ki (JAK2): 10 to 100 nM

Q: How did the Ki (TYK2) turn out when `N#Cc1cccc(F)c1-c1cc(Nc2ccc(N3C[C@H]4COC[C@H]4C3)nc2)c2c(n1)CNC2=O` [Compound I-74, 3-fluoro-2-(5-oxo-4-((6-((3aR,6aS)-tetrahydro-1H-furo[3,4-c]pyrrol-5(3H)-yl)pyridin-3-yl)amino)-6,7-dihydro-5H-pyrrolo[3,4-b]pyridin-2-yl)benzonitrile] was run?
A: ≤ 10 nM

Q: And the Ki (JAK2)?
A: 100 to 1000 nM

Q: How did the Ki (JAK2) turn out when `O=C1NCc2nc(-c3c(F)cccc3F)nc(Nc3ccc([C@@H](O)C(F)(F)F)cc3)c21` [Compound I-31, (R)-2-(2,6-difluorophenyl)-4-((4-(2,2,2-trifluoro-1-hydro-xyethyl)phenyl)amino)-6,7-dihydro-5H-pyrrolo[3,4-d]pyrimidin-5-one] was run?
A: 10 to 100 nM

Q: Which results are given for `COc1ccc(CNc2nc(-c3c(F)cccc3F)nc3c2C(=O)NC3)cc1` [Compound I-13, 2-(2,6-difluorophenyl)-4-((4-methoxybenzyl)-amino)-6,7-dihydro-5H-pyrrolo[3,4-d]pyrimidin-5-one]?
A: Ki (TYK2): 10 to 100 nM; Ki (JAK2): 100 to 1000 nM

Q: `CC1(C)COc2cc(Nc3nc(-c4c(F)cccc4F)nc4c3C(=O)NC4)ccc21` [Compound I-23, 2-(2,6-difluorophenyl)-4-((3,3-dimethyl-2,3-dihydrobenzofuran-6-yl)amino)-6,7-dihydro-5H-pyrrolo[3,4-d]pyrimidin-5-one] was tested. Which Ki (TYK2) did it give?
A: ≤ 10 nM

Q: And the Ki (JAK2)?
A: 100 to 1000 nM

Q: For `C[C@@](O)(c1ccc(Nc2cc(-c3c(F)cccc3F)nc3c2C(=O)NC3)cc1)C(F)(F)F` [Compound I-44, (R)-2-(2,6-difluorophenyl)-4-((4-(1,1,1-trifluoro-2-hydroxy-nronan-2-yl)phenyl)amino)-6,7-dihydro-5H-pyrrolo[3,4-b]pyridin-5-one], which Ki (JAK2) is on record?
A: 100 to 1000 nM

Q: How did the Ki (JAK2) turn out when `CCNC(=O)[C@](O)(CC(F)(F)F)c1ccc(Nc2nc(-c3c(F)cccc3F)nc3c2C(=O)NC3)cc1` [Compound I-27, (S)-2-(4-((2-(2,6-difluorophenyl)-5-oxo-6,7-dihydro-5H-pyrrolo[3,4-d]pyrimidin-4-yl)amino)phenyl)-N-ethyl-4,4,4-trifluoro-2-hydroxybutanamide] was run?
A: 10 to 100 nM

Q: Which Ki (JAK2) does the source give for `C[C@@](O)(c1ccc(Nc2nc(-c3c(F)cccc3F)nc3c2C(=O)NC3)cc1)C(F)(F)F` [Compound I-35, (R)-2-(2,6-difluorophenyl)-4-((4-(1,1,1-trifluoro-2-hydroxy-propan-2-yl)phenyl)amino)-6,7-dihydro-5H-pyrrolo[3,4-d]pyrimidin-5-one] here?
A: 100 to 1000 nM
